Results on five compounds are retold here after patent US4636520A, “Antifungal composition employing pyrrolnitrin in combination with an imidazole compound” (Fujisawa Pharmaceutical Co., Ltd., priority 1984, dated 1987).

Converted amounts (≈) assume the structure as drawn. Like-named read-outs stand apart in the source and are kept apart here. Bounds are passed on as bounds.

Assay type in all cases: cell-based
The subject of one assay is Candida albicans FP578. Briefly: Antimicrobial test 1 (agar plate MIC), organism b. As to the method:
(§1) Pyrrolnitrin (PY) alone, clotrimazole (CL) alone, a 2:1 mixture of PY and CL, a 1:1 mixture of PY and CL and 1:2 mixture of PY and CL were tested for antimicrobial activity in various strains of microorganisms.
b: Candida albicans FP578
(§2) Composition A: PY (10 mg) was dissolved in 1 ml of ethanol, and the solution is mixed with 9 ml of sterilized water to give a milk-white suspension.
(§3) Composition B: CL (10 mg) was dissolved in 1 ml of N,N-dimethylformamide, and the solution was mixed with 9 ml of sterilized water to give a milk-white suspension.
(§4) Composition C: The above Compositions A and B were mixed together in a volume ratio of 2:1 to give a suspension. […]
(§5) Plates with varied active ingredient concentrations were prepared by admixing each of Compositions A-E prepared in the above manner with Sabouraud agar medium (for test organisms a-f) or Mueller-Hinton medium (for test organism g), followed by appropriate dilution with the medium. These plates were inoculated respectively with each of the test organisms a-g and incubated under the conditions given below, and the minimum inhibitory concentration (MIC; μg/ml) at which the growth of each test organism is inhibited was determined. […]
(§6) The FIC indexes given in the parentheses of Tables 1 and 2 were calculated by using the following formulas. […]

The next assay deals with Candida albicans FP581. Description: Antimicrobial test 1 (agar plate MIC), organism e. On the procedure:
as §1
e: Candida albicans FP581
as §2, §3, §4, §5, §6

In assay [1] the test system is Candida albicans Yu-1200. Briefly: Antimicrobial test 1 (agar plate MIC), organism a. On the procedure: as §1
(§7) a: Candida albicans Yu-1200
as §2, §3, §4, §5, §6

Assay [2] has as its system Candida albicans FP580. Description: Antimicrobial test 2 (agar plate MIC), organism d. On the procedure: (§8) Pyrrolnitrin (PY) alone, clotrimazole (CL) alone, miconazole alone, econazole alone, oxyconazole alone and 1:1 mixtures of PY and CL, PY and miconazole, PY and econazole and PY and oxyconazole were test for antimicrobial activity in various strains of microorganisms.
(§9) d: Candida albicans FP580
(§10) Compositions A was prepared as stated above.
(§11) Composition F, G and H: A milk-white suspension containing 10 mg of miconazole (Composition F), a transparent solution containing 10 mg of econazole (Composition G) and a milk-white suspension containing 10 mg of oxyconazole (Composition H) were respectively prepared in a similar way to that of Composition B.
(§12) Composition I: The above-mentioned Compositions A and F were mixed together in a volume ratio of 1:1 to give a suspension.
(§13) Composition J: The above-mentioned Compositions A and G were mixed together in a volume ratio of 1:1 to give a suspension.
(§14) Composition K: The above-mentioned Compositions A and H were mixed together in a volume ratio of 1:1 to give a suspension.
(§15) Plates with varied active ingredient concentrations were prepared by admixing each of Compositions A and F to K prepared in the above manner with Sabouraud agar medium, followed by appropriate dilution with the medium. These plates were inoculated respectively with each of the test organisms a and d and incubated at 30° C. for 48 hours. The minimum inhibitory concentration (MIC; μg/ml) at which the growth of each test organism is inhibited was determined.
(§16) The FIC indexes given in the parentheses of Tables 1 and 2 were calculated by using the following formulas. [formula]

Assay [3] concerns Candida albicans FP580. Briefly: Antimicrobial test 1 (agar plate MIC), organism d. As to the method: as §1, §9, §2, §3, §4, §5, §6
A further assay relates to Candida albicans FP579. Briefly: Antimicrobial test 1 (agar plate MIC), organism c. As to the method: as §1
c: Candida albicans FP579
as §2, §3, §4, §5, §6

The subject of assay [4] is Staphylococcus epidermidis 91. Description: Antimicrobial test 1 (agar plate MIC), organism g. As to the method: as §1
g: Staphylococcus epidermidis 91
as §2, §3, §4, §5, §6

Assay [5] deals with Candida albicans Yu-1200. Description: Antimicrobial test 2 (agar plate MIC), organism a. As to the method:
as §8, §7, §10, §11, §12, §13, §14, §15, §16

In assay [6] the test system is Aspergillus oryzae IFO 5239. Description: Antimicrobial test 1 (agar plate MIC), organism f. The settings on record: IFO5239, 168 h. As to the method: as §1
f: Aspergillus oryzae IFO 5239
as §2, §3, §4, §5, §6

By MIC is commonly meant the smallest concentration in the dilution series that meets the test's criterion for growth inhibition. As for `O=[N+]([O-])c1c(Cl)cccc1-c1c[nH]cc1Cl` [Composition A, 3-(2-nitro-3-chlorophenyl)-4-chloropyrrole], the minimal inhibitory concentration (MIC) is 3.13 µg/mL (≈ 12.2 µM) in the assay on Candida albicans FP578 (Candida albicans FP578, Sabouraud agar, 37° C., 24 hours, read-out: MIC); over 100 µg/mL in the assay on Candida albicans FP581 (Candida albicans FP581, Sabouraud agar, 37° C., 24 hours, read-out: MIC); 100 µg/mL (≈ 389 µM) with Candida albicans Yu-1200 [1] (YU1200, Candida albicans Yu-1200, Sabouraud agar, 37° C., 24 hours, read-out: MIC); 0.78 µg/mL (≈ 3.03 µM) with Candida albicans FP580 [2] (Candida albicans FP580, Sabouraud agar, 30° C., 48 hours, read-out: MIC); 1.56 µg/mL (≈ 6.07 µM) in the assay with Candida albicans FP580 [3] (Candida albicans FP580, Sabouraud agar, 37° C., 24 hours, read-out: MIC); 25 µg/mL (≈ 97.2 µM) with Candida albicans FP579 (Candida albicans FP579, Sabouraud agar, 37° C., 24 hours, read-out: MIC). For the same compound, the MIC in [4] (Staphylococcus epidermidis 91, Mueller-Hinton medium, 37° C., 20 hours, read-out: MIC) was 100 µg/mL (≈ 389 µM); in the assay on Candida albicans Yu-1200 [5] (YU1200, Candida albicans Yu-1200, Sabouraud agar, 30° C., 48 hours, read-out: MIC), 100 µg/mL (≈ 389 µM); in [6] (Aspergillus oryzae IFO 5239, Sabouraud agar, 30° C., 1 week, read-out: MIC) it was over 100 µg/mL.

Take `Clc1ccccc1C(c1ccccc1)(c1ccccc1)n1ccnc1` [Composition B, 1-[(2-chlorophenyl)diphenylmethyl]-1H-imidazole]: the MIC is 6.25 µg/mL (≈ 18.1 µM) in the assay on Candida albicans FP578 (Candida albicans, FP578, 24 h); 25 µg/mL (≈ 72.5 µM) against Candida albicans FP581 (Candida albicans, FP581, 24 h); 6.25 µg/mL (≈ 18.1 µM) with Candida albicans Yu-1200 [1] (Candida albicans, YU1200, 24 h); 6.25 µg/mL (≈ 18.1 µM) in the assay with Candida albicans FP580 [3] (Candida albicans, FP580, 24 h); 6.25 µg/mL (≈ 18.1 µM) in the assay on Candida albicans FP579 (Candida albicans, FP579, 24 h); 25 µg/mL (≈ 72.5 µM) in assay [4] (Staphylococcus epidermidis, 91, 20 h). In assay [6] (Aspergillus oryzae), this compound gave an MIC of 12.5 µg/mL (≈ 36.2 µM).

Take `Clc1ccc(COC(Cn2ccnc2)c2ccc(Cl)cc2Cl)c(Cl)c1` (stereo not shown) [Composition F, 1-[2-(2,4-dichlorophenyl)-2-[(2,4-dichlorophenyl)methoxy]ethyl]-1H-imidazole]: the MIC with Candida albicans FP580 [2] (Candida albicans, FP580, 48 h) was 12.5 µg/mL (≈ 30 µM); with Candida albicans Yu-1200 [5] (Candida albicans, YU1200, 48 h), 6.25 µg/mL (≈ 15 µM).

Regarding `Clc1ccc(COC(Cn2ccnc2)c2ccc(Cl)cc2Cl)cc1` (stereo not shown) [Composition G, 1-[2-[(4-chlorophenyl)methoxy]-2-(2,4-dichlorophenyl)ethyl]-1H-imidazole], the MIC with Candida albicans FP580 [2] (Candida albicans, FP580, 48 h) was found to be 6.25 µg/mL (≈ 16.4 µM); in the assay with Candida albicans Yu-1200 [5] (Candida albicans, YU1200, 48 h) it was 6.25 µg/mL (≈ 16.4 µM).

With `Clc1ccc(C(Cn2ccnc2)=NOCc2ccc(Cl)cc2Cl)cc1` [Composition H], the MIC with Candida albicans FP580 [2] (Candida albicans FP580, Sabouraud agar, 30° C., 48 hours) was 25 µg/mL (≈ 63.3 µM); against Candida albicans Yu-1200 [5] (Candida albicans Yu-1200, Sabouraud agar, 30° C., 48 hours) it was 25 µg/mL (≈ 63.3 µM).
